In paper PMC8894198, “Biosynthetic Microcin J25 Exerts Strong Antibacterial, Anti-Inflammatory Activities, Low Cytotoxicity Without Increasing Drug-Resistance to Bacteria Target” (Frontiers in Immunology, 2022):
Where a SMILES comes first, the peptide text is derived from it. Bridges are numbered along the chain shown (N, C = ends).

Columns and labels:
[1] = tested on: cocktail of MDR E. coli strains (521ZQE, AZ1, WWE921A-2) in C57BL/6 J mice; experiment: Cocktail of MDR E. coli strains challenge in mice, MccJ25 pretreatment; format: in vivo
Source text: 4-week-old C57BL/6 J female mice [initial body weight (BW) 15.23 ± 0.09] were purchased from Charles River Laboratories (Beijing, China) and raised under standard conditions. The producer was described in “Mice Model” section. […] Mice were maintained in a 3-d acclimatization period of time. Afterwards, 36 mice were randomly separated into three experimental groups based on BW: Uninfected group, control; Infected group; MccJ25+infected group, 12 mice per group in four cages, three mice/cage, total of 12 cages. Cocktail of MDR E. coli strains infection producers were performed as our previous described previously ([30]), experimental roadmap was shown in Figure 10A . A single of colony of MDR E. coli strains 521ZQE, AZ1, and WWE921A-2 were incubated in LB medium and grew to stationary stage (OD600 > 3), respectively. All mice were pretreated 0.2 ml PBS (control and infected group) or 0.2 ml PBS containing with 9.1 mg/kg/BW MccJ25 (MccJ25+infected group) for 3 d (once/day) prior to infection. Infected mice and MccJ25+infected mice received 0.2 ml sterile PBS containing 5 × 10^8 cocktail of MDR E. coli strains by oral gavage. The control group still received 0.2 ml of sterile PBS by gavage for 2 d. The concentration of biosynthetic MccJ25 was selected based on our previous study ([24]). After 3 d, mice were euthanized friendly, intestinal tissues, organs and serum were obtained. Fresh fecal, tissues, liver, and spleen were immediately placed on ice (1-2 h) and transported to the laboratory to count the specific bacteria in the laboratory. Serum was kept in -20°C and part of jejunum, colon, and spleen were stored in the -80°C for cytokines analysis.
In the LPS-challenged mice experiment, lifespan of mice was monitored for 72 h. In the cocktail of MDR E. coli strains infection experiment, BW change, rectal temperature, diarrhea scores and fecal image, or survival rate were measured. For the diarrhea score evaluation producer was referred to previous study ([24]).
The 0.1 g fresh jejunum, ileum, proximal colon, feces, liver, and spleen were collected and kept in sterile tubes containing 0.9 ml sterile physiological saline solution. Then, cryogenic lapping instrument (Shanghai Jingxin Industrial Development Co., Ltd., China) was applied to prepare the homogenate. 0.1 mL indicated samples prepared by ten-fold serial dilutions method were plated on indicated antibiotics MacConkey (OXOID, Hampshire, UK) and ChromAgar™ (OXOID, Hampshire, UK) plates. These plates were cultured overnight at 37°C to count colonies. Colony numbers were expressed as log 10 CFU/g of samples. All counts were performed in triplicate. Colonies were observed on the MacConkey agar and ChromAgar plates in the absence of indicated antibiotics, we considered that they were enterobacteria-like bacterium belonging to the class of family Enterobacteriaceae.
Quantification of total bacteria, E. coli, Lactobacillus, and Bifidobacterium was done using PCR. In brief, total microbial DNA from cecal digesta was obtained. The total bacteria, Lactobacillus, Bifidobacterium, E. coli primers were synthesized in Invitrogen (Shanghai, China), which are listed in Table S1 . Standard curves of indicated bacteria were generated based on the construction of standard plasmids containing the 16S rRNA genes. The copy numbers of total bacteria, Lactobacillus, Bifidobacterium, and E. coli were calculated referring to standard curves as described previously ([30]).
The concentrations of tumor necrosis factor-α (TNF-α), interleukin-6 (IL-6), IL-4, interferon (IFN)-γ, and nitric oxide (NO) in serum were measured. In addition, TNF-α and NO levels were also measured in the supernatant of RAW264.7 cells. ELISA was performed using a commercial ELISA kit (eBioscience, San Diego, USA). LPS levels in plasma were analyzed using the QCL-1000 kit (Xiamen, China) based on the manufacturer’s standards. […]

E. coli K88 (ETEC K88) = experiment: Killing curves (bactericidal activity at different growth phases); format: cell-based
Protocol: Figure 1 Bactericidal activity assay of MccJ25 against E coli K88. Different concentrations of E coli K88 were cultured in LB containing different levels of MccJ25. E coli K88 cells (5 × 10^5 CFU/mL) were incubated and grown to different stages, including early-log (A), late-log (B) and stationary (C) phases. Additionally, bacteria, 5 × 10^8 CFU/mL, were cultured and grown to early-log (D), late-log (E) and stationary (F) phases. Data are means ± standard error of mean from 6 biological replicates.
A purified single colony of E. coli K88 was inoculated into 5 mL of LB. Then, culture was incubated at 37◦C with shaking at 200 rpm overnight. The next day, the culture was diluted 1:100 in fresh LB and incubated at 37◦C with shaking at 200 rpm again. To test antimicrobial activity, the bacteria were grown until they reached log phase. […] The cultures were serially diluted with sterilized saline water and plated on LB agar at different hours. The plates were incubated at 37◦C overnight to count colony. Colonies were counted to determine CFU/mL. The experiment was conducted with two replicates in three independent trials. A Live/Dead BacLight Bacterial Viability Kit 7 (Molecular Probes, Inc., Eugene) was used to test bacterial viability. […] E. coli K88 cultures were incubated at 37◦C for 2 h and then incubated in the dark at ambient temperature with SYTO 9 and propidium iodide for 15 min. Bacteria were observed using a fluorescence microscope (EVOS XL Cell Imaging System).

E. coli K88 [2] = format: cell-based; conditions: sub-MIC levels, 25-d passage period; six biological replicates
Protocol: To quantify the production status of the bacteria, the bacterial density was measured after incubating for 24 h. Cultures with the second highest concentration allowed to grow (OD600 ≥ 2) were diluted 1:100 with MccJ25 MHB at different concentrations than those described above. Cultures that grew above the indicated MIC levels were plated on LB agar plates, and their MIC levels were determined by the broth macrodilution method.

E. coli K88 [3] = experiment: MIC variability (cross-resistance) after 5 days at sub-MIC; format: cell-based; conditions: bacterial cells treated with MccJ25 (0.25 × MIC) for 5 days
Protocol: A 1:100 dilution of the bacteria was performed daily in the above MHB. Aliquots of the culture medium were used daily for 5 days thereafter to determine the MICs of ampicillin, tetracycline, aureomycin, and kanamycin. This study was performed based on our previous study ([29]).

[4] = 9.1 mg/kg/BW oral gavage for 3 d before infection
[5] = ELISA, vs infected group, n = 6
[6] = jejunum, colon and spleen, qPCR, vs infected mice

For CC[C@H](C)[C@H](NC(=O)CNC(=O)[C@@H](NC(=O)[C@H](Cc1ccccc1)NC(=O)[C@H](Cc1ccc(O)cc1)NC(=O)[C@@H]1CCC(=O)NCC(=O)NCC(=O)N[C@@H](C)C(=O)NCC(=O)N[C@@H](Cc2c[nH]cn2)C(=O)N[C@@H](C(C)C)C(=O)N2CCC[C@H]2C(=O)N1)C(C)C)C(=O)NCC(=O)N[C@H](C(=O)N1CCC[C@H]1C(=O)N[C@H](C(=O)N[C@@H](CO)C(=O)N[C@@H](Cc1ccccc1)C(=O)N[C@@H](Cc1ccc(O)cc1)C(=O)NCC(=O)O)[C@@H](C)CC)[C@@H](C)O [MccJ25, microcin J25] (GGAGHVPEYFVGIGTPISFYG-OH; lactam N-8 (inferred); C-terminus assumed), the body weight [1, 4] was “increasing BW”, the diarrhea incidence [1, 4] was “decreasing diarrhea incidence” and the rectal temperature [1, 4] was “increasing”. For the same molecule, the lifespan / survival ([1]; 9.1 mg/kg/BW oral gavage once/day for 3 d before infection, n = 12) was “prolonging the lifespan”, the “serum IL-4” value [1, 5] was “higher IL-4” and the “serum proinflammatory cytokines (TNF-α, IFN-γ, IL-6)” value [1, 5] was “lower proinflammatory cytokines”. For the same molecule, the “MDR E. coli colonization in liver and spleen” value ([1]; d 3 after infection, n = 6) was “effectively reduced the degree of clinically source MDR E. coli colonization and expansion”, the “IL-10 mRNA” value [1, 6] was “high anti-inflammatory cytokine IL-10” and the “mRNA of proinflammatory indicators (TNF-α, IL-6, IFN-γ, IL-1β, TLR4, NF-κB)” value [1, 6] was “lower proinflammatory indicators”. The “MDR E. coli in the intestines (jejunum, ileum, colon)” value ([1]; plate counts, d 3 after infection) was “significantly reduced the number and colonization”, the “copy number of E. coli in cecal contents” value ([1]; real-time qPCR) was “sharply decreased the copy number” and the “copy numbers of Lactobacillus, Bifidobacterium in cecal contents” value ([1]; real-time qPCR) was “significantly increased the copy numbers”. The “total bacteria copy numbers in cecal contents” value ([1]; real-time qPCR) was “no significant difference”, the “bacterial load in the feces” value ([1]; vs infected group, n = 6) was “markedly decreased the bacterial load” and the “time in which all inoculants were killed” value (E. coli K88 (ETEC K88); at the indicated MICs, stationary phase) was at most 6 h. For the same molecule, the “time in which all inoculums were killed” value (E. coli K88 (ETEC K88); inoculum 5 × 10^5 CFU/mL, 2 × MIC, each growth period (early log, late log, stationary), LB, 37°C) was at most 4 h, the “reduction of bacterial count” value (E. coli K88 (ETEC K88); inoculum 5 × 10^5 CFU/mL, 4 × MIC, after 2 h incubation) was 5 log and the “reduction of bacterial count” value (E. coli K88 (ETEC K88); inoculum 5 × 10^5 CFU/mL, at the indicated MICs, at 2 h, all phases) was “approximately 4 log”. For the same molecule, the “reduction of bacterial count” value (E. coli K88 (ETEC K88); inoculum 5 × 10^8 CFU/mL at log phase, 4 × MIC, 12 h) was 8 log, the “reduction of bacterial count” value (E. coli K88 (ETEC K88); inoculum 5 × 10^8 CFU/mL, 1 × MIC, within 7 h) was 6 log and the “resistant mutants during serial passage” value (E. coli K88 [2]) was “No resistant mutants were detected”. The “change in the MICs of ciprofloxacin, ampicillin, tetracycline and kanamycin” value (E. coli K88 [3]) was “no changes were observed”.
